Patent US20110162981A1, “METHODS AND COMPOSITIONS FOR PREVENTING, REDUCTING OR TREATING DAMAGE CAUSED BY ISCHEMIA AND SCHEMIA-LIKE CONDITIONS” (priority 2008, published 2011)

Test system: ischemia-induced brain lesion (middle cerebral artery occlusion)
Assay: MCAO/reperfusion stroke model, TTC staining lesion volume
Type: in vivo, Sprague Dawley rats
Conditions: ovariectomized female SD rats, 1 hr MCAO

C[C@]12CC[C@@H]3c4ccc(O)cc4CC[C@H]3[C@@H]1CC[C@@H]2O [17 β-Estradiol, 17-beta estradiol]
Ischemic Lesion Volume (means, mm^3) (24 hours after onset of reperfusion, TTC staining, mean): 147.4 mm^3 | reduction of ischemia-induced brain lesion compared with control rats (24 hours reperfusion, vs control diet rats): 48%
